Calls of active or inactive are those of the source. No cut-off for these calls is given here.
Columns and labels:
[1] = target: T1, Human immunodeficiency virus type 1 reverse transcriptase (Human immunodeficiency virus 1, UniProt Q72547); test: Inhibition of HIV1 recombinant reverse transcriptase by UIC assay
[2] = target: T1, Human immunodeficiency virus type 1 reverse transcriptase; test: Inhibition of HIV1 recombinant reverse transcriptase by NCI assay
Rattus norvegicus = organism: Rattus norvegicus; test: Displacement of [3H]phorbol dibutyrate from rat brain membrane; type: tissue-based

SMILES | IC50 [1] | IC50 [2] | Activity (Rattus norvegicus)
CC1(C)CC[C@]2(C(=O)O)CC=C3[C@]4(C)CC[C@H]5C(C)(C)[C@@H](O)[C@H](OC(=O)c6ccc(O)cc6)C[C@]5(C)[C@H]4CC[C@@]3(C)[C@H]2C1 | 52 µM | > 200 µM | 
CC1(C)CC[C@]2(C(=O)O)CC=C3[C@]4(C)CC[C@H]5C(C)(C)C[C@H](O)[C@@H](O)[C@]5(C)[C@H]4CC[C@@]3(C)[C@H]2C1 | 3.4 µM | > 100 µM | 
CC1(C)CC[C@]2(C(=O)O)CC=C3[C@]4(C)CC[C@H]5C(C)(C)[C@@H](O)C[C@@H](O)[C@]5(C)[C@H]4CC[C@@]3(C)[C@H]2C1 | 4.9 µM |  | 
CC1(C)CC[C@]2(C(=O)O)CC=C3[C@]4(C)CC[C@H]5C(C)(C)[C@@H](OC(=O)c6ccc(O)cc6)CC[C@]5(C)[C@H]4CC[C@@]3(C)[C@H]2C1 | 10.6 µM | 200 µM | 
CC1(C)CC[C@]2(C(=O)O)CC=C3[C@]4(C)CC[C@H]5C(C)(C)[C@@H](OC(=O)c6ccc(O)cc6)[C@H](OC(=O)c6ccc(O)cc6)C[C@]5(C)[C@H]4CC[C@@]3(C)[C@H]2C1 | 7.9 µM | 60 µM | 
CC1(C)CC[C@]2(C(=O)O)CC=C3[C@]4(C)CC[C@H]5C(C)(C)[C@@H](OC(=O)c6ccc(O)cc6)C[C@@H](O)[C@]5(C)[C@H]4CC[C@@]3(C)[C@H]2C1 | 3.7 µM | > 100 µM | Active
CC1(C)CC[C@]2(C(=O)O)CC=C3[C@]4(C)CC[C@H]5C(C)(C)[C@@H](OC(=O)c6ccc(O)cc6)[C@H](O)C[C@]5(C)[C@H]4CC[C@@]3(C)[C@H]2C1 | 14.4 µM | > 200 µM | 
CC1(C)CC[C@]2(C(=O)O)CC=C3[C@]4(C)CC[C@H]5C(C)(C)[C@@H](OC(=O)/C=C/c6ccc(O)cc6)CC[C@]5(C)[C@H]4CC[C@@]3(C)[C@H]2C1 | 11.5 µM | 60 µM | 
CC1(C)CC[C@]2(C(=O)O)CC=C3[C@]4(C)CC[C@H]5C(C)(C)[C@H](O)[C@@H](OC(=O)c6ccc(O)cc6)C[C@]5(C)[C@H]4CC[C@@]3(C)[C@H]2C1 | 15 µM | 40 µM | 

From ChEMBL document CHEMBL1159271, “A reinvestigation of Maprounea triterpenes” (J Nat Prod, 1995)
